# Reference: PMC3800014 (Journal of insect physiology, 2013)
# Key:
# Type in all cases: cell-based
# [1] = target: T1, CquiOR1 (CquiOR1•CquiOrco) (Culex quinquefasciatus, UniProt S5RQ84); test: two-electrode voltage clamp, Xenopus oocytes, inward current; settings: agonist; co-expressed CquiOrco; -70 mV
# T1 sequence (S5RQ84 1-391): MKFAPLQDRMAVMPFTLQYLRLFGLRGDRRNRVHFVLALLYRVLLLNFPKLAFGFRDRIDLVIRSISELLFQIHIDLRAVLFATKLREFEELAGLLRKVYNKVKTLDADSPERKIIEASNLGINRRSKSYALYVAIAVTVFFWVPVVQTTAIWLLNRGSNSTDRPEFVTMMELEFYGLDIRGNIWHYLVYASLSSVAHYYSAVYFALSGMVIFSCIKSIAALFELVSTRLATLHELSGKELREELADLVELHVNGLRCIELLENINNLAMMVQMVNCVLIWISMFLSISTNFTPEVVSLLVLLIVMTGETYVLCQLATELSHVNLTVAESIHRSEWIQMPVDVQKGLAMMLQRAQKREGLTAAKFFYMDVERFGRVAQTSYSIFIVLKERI
# [2] = target: T1, CquiOR1 (CquiOR1•CquiOrco); test: Xenopus oocyte recording, UM laboratory; settings: agonist; co-expressed CquiOrco; positive control
# [3] = target: T2, CquiOR44 (CquiOR44•CquiOrco) (Culex quinquefasciatus, UniProt S5RSX8); test: two-electrode voltage clamp, Xenopus oocytes, inward current; settings: agonist; co-expressed CquiOrco; -70 mV
# T2 sequence (S5RSX8 1-423): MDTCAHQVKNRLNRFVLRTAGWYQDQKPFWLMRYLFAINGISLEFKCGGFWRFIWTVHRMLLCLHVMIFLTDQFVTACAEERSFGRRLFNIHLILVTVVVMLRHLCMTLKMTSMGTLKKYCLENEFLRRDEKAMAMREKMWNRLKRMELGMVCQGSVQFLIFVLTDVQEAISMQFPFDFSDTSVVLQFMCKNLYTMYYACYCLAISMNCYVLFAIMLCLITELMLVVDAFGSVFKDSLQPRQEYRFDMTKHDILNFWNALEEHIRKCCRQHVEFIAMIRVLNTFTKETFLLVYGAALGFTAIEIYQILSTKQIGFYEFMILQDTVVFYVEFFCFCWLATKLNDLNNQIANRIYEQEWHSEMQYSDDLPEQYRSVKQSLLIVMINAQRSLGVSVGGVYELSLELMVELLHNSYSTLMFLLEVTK
# [4] = target: T3, CquiOR73 (CquiOR73•CquiOrco) (Culex quinquefasciatus, UniProt S5R433); test: as above; settings: agonist; co-expressed CquiOrco; -70 mV
# T3 sequence (S5R433 1-396): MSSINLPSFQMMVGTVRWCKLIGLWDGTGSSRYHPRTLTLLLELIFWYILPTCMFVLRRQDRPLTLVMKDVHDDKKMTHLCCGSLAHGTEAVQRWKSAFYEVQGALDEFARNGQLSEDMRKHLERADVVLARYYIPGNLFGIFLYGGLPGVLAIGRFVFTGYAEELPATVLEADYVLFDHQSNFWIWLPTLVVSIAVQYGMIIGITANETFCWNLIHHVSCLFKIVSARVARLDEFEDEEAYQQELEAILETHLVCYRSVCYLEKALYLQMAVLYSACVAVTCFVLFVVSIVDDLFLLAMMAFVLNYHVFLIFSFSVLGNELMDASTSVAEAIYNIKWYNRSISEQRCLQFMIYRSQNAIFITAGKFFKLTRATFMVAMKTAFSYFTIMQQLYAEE
smiles,measurement,setting,value
CCCCCCO [1-hexanol],"two-electrode voltage clamp, Xenopus oocytes, inward current",[1],"when CquiOR1 was challenged with 1-hexanol, 1-octen-3-ol, 2-phenoxyethanol, or benzaldehyde"
C=CC(O)CCCCC (stereo not drawn) [1-octen-3-ol],"two-electrode voltage clamp, Xenopus oocytes, inward current",[1],"when CquiOR1 was challenged with 1-hexanol, 1-octen-3-ol, 2-phenoxyethanol, or benzaldehyde"
CCc1ccc(O)cc1 [4-ethylphenol],"Xenopus oocyte recording, UM laboratory",[2],"medium to large responses when challenged with indole, 4-ethylphenol, 4-methylphenol, phenol"
CC1(C)C(=O)[C@@]2(C)CC[C@@H]1C2 [(+)-fenchone],"two-electrode voltage clamp, Xenopus oocytes, inward current",[3],no chiral discrimination as responses to (+)- and (−)-fenchone did not differ
CC1(C)C(=O)[C@]2(C)CC[C@H]1C2 [(−)-fenchone],"two-electrode voltage clamp, Xenopus oocytes, inward current",[3],no chiral discrimination as responses to (+)- and (−)-fenchone did not differ
CC(=O)c1ccccc1 [acetophenone],"Xenopus oocyte recording, UM laboratory",[2],"phenol, acetophenone, benzaldehyde, and 6-methyl-5-hepten-2-one"
C=CCc1ccc(O)c(OC)c1 [eugenol],"two-electrode voltage clamp, Xenopus oocytes, inward current",[4],eugenol was the best ligand identified for this OR
CCCCCCCCOC(C)=O [octyl acetate],"two-electrode voltage clamp, Xenopus oocytes, inward current",[4],"no significant response to the majority of compounds in the panel, except for octyl acetate"
"CC1CCC(C(C)(C)O)C(O)C1 (stereo not drawn) [p-menthane-3,8-diol]","two-electrode voltage clamp, Xenopus oocytes, inward current",[3],"including known natural repellents like p-menthane-3,8-diol"
